# Earlier results, collected in US7691423B2, “Method of treating inflammation disorders using extracts of passion fruit” (priority 2005, dated 2010).
# Assays:
# [1] = test system: vascular contraction
# [2] = test system: spontaneously hypertensive rat (SHR) cells; settings: SHR cells in vitro
# [3] = test system: iNOS
SMILES,Large dose acetylcholine-induced vascular contraction [1],NOLA-dependent spontaneous aortic ring contraction [2],iNOS mRNA and the production of nitric oxide [3]
O=c1c(O)c(-c2ccc(O)cc2)oc2cc(O)cc(O)c12 [kaempferol],inhibited,inhibit,–
O=c1c(O)c(-c2ccc(O)c(O)c2)oc2cc(O)cc(O)c12 [quercetin],inhibited,inhibit,inhibit
O=c1ccc2cc(O)c(O)cc2o1 [esculetin],inhibited,–,–
